Experimental data from patent US5585358A, “Derivatives of valproic acid amides and 2-valproenoic acid amides, method of making and use thereof as anticonvulsant agents” (Yissum Research Development Corporation of the Hebrew …, priority 1993, dated 1996).
Read-outs that look alike come from different tables or passages of the source.

Columns and labels:
[1] = format: in vivo, rat; set-up: key to Latency, Session I / Latency, Session II: latency in seconds for avoiding a potential shock
Procedure: Test was performed on days 16-17 (session 1) and 22-23 (session 2) after initiation of drug treatment. Better performance is indicated by an increase in avoidance score, a decrease in latency time, and an increase in the number of crossings.
(§1) The studies test for the level of motivation, association and short and long-term memory. The specific studies were the effect of compound 1 on the performance of rats in the locomotor test and passive and active response tests.
The conditioned avoidance response (active avoidance test) of rats was determined in a Hugo-Basile automatic conditioning apparatus, which consists of a shuttle box with two separate floor grids. In this apparatus the rats are conditioned to jump from one side of the box to the other side. The conditioning is a 10 sec stimulus consisting of a light and electric buzzer. […] The session is then repeated with the same rats 7 days later. Experiments were carried out on days 16-17 and 22-23 from the start of drug treatment, and each rat received 60 trials with a 30 sec interval between each trial.
The following parameters were recorded: a) the number of potential shocks successfully avoided; b) the latency response in seconds for avoiding a potential shock; and c) the total number of crossings made throughout the trials. In this test, a better performance is indicated by an increase in the avoidance of an electric shock, a decrease in the latency time to jump to the other side of the cage, and an increase in the number of times the rats crossed to the other side of the cage.
Scores in the active avoidance test (conditioned avoidance response) of
rats treated with compound 1 and related drugs. The tests in the first
session were performed on days 16-17 from initiation of drug
administration. Those in session II were performed on days 22-23, that is
7 days following session I. Number of rats in a group are given in […]

[2] = rat p.o.; literature values; cited from earlier work
[3] = rat p.o.; literature values; N.E. = not effective; cited from earlier work
[4] = mice i.p., literature values, N.E. = not effective, cited from earlier work
[5] = rat p.o.; literature values; cited from earlier work; remark: listed apart in the source
[6] = format: in vivo, rat
Procedure: as §1
In the locomotor test, motor activity was recorded 8 to 9 days after the beginning of drug treatment. Locomotion scores were recorded in cages (25×26cm) having a grid of infra-red beams at 4 cm intervals. Two categories of movements were recorded: small movements (those originating in stationary activities such as grooming and scratching), and big movements (those resulting in ambulation and recorded as the simultaneous crossing of more than two beams). Since rats are nocturnal animals, recordings were usually made between 18:00 PM-6:00 AM.
Activity scores of drugtreated rats, measured in activity cages on days
8-9 after initiation of daily oral dosing with the given drug. Figures ar
number of crossings ± SEM. Number of rats per group are given in […]

[7] = maximal electroshock (MES) test, rat p.o.; format: in vivo; conditions: for ED100: Rattus norvegicus, rats, read-out: minimum dose giving full protection against seizures in the MES test
Text: (§2) The first model, the subcutaneous pentylenetetrazol (s.c. Met) seizure threshold test, is a standard screening procedure to show efficacy for agents against absence seizures. The second model, the maximal electroshock (MES) test, is used to show efficacy for antiepileptic agents against generalized seizures. In these studies, convulsions were inhibited or prevented in mice after intraperitoneal (i.p.) administration and/or in rats after oral (p.o.) administration of the compounds.
(§3) N-(2-Propylpentanoyl)glycinamide (hereinafter compound 1) was further tested in two additional models. The third model, electrical kindling of rats, has been known to show efficacy of antiepileptic agents against complex partial seizures that evolve into generalized motor seizures. In these tests, rats were electrically stimulated via corneal electrodes twice daily for approximately 5 days and then once daily for an additional 10 days. Once the seizure criteria, as described by R. J. Racine, et al., Electroenceph. […] In addition, compound 1 was also tested in the subcutaneous bicuculline model (s.c. Bic).
and rats by subcutaneous administration of pentylenetetrazol (s.c. Met
test) or by electrical stimulation (MES test). N.E. = not effective.

[8] = format: in vivo, rat; remark: listed apart in the source
Procedure: Tests were performed on day 10 after drug treatment. Latency, in seconds, represents response time to entry into dark compartment. Maximum latency is 300 sec. Longer latencies represent improved performance. Bars represent mean standard error (SEM).
as §1
To measure passive avoidance responses, tests were performed on days 10, 12, 14, 20, and 26 after initiation of drug treatment. The apparatus consisted of a lit chamber that can be separated from a dark chamber by a sliding door. In the experiment, a rat is placed in a lit chamber for 30 sec, the door is then opened and the rat moves into the dark chamber with latency that is recorded. Upon entry into the dark chamber, the door is shut and a 0.3 mA footshock is delivered for 3 sec. Retention of the experience is determined after 48 hours by repeating the test and recording the latency. The maximum latency was arbitrarily assigned the value of 300 sec. Longer latencies are taken as a measure of improved memory.

[9] = mice i.p.; literature values; cited from earlier work
[10] = background literature; cited from earlier work
[11] = median lethal dose in mice; conditions: mouse, in vivo, ip
[12] = maximal electroshock (MES) test, mice i.p.; format: in vivo; conditions: for activity in MES model: doses up to 300 mg/kg
Text: Convulsions were induced in mice

[13] = subcutaneous pentylenetetrazol (s.c. Met) seizure threshold test, mice i.p.; format: in vivo; conditions: for activity in s.c. Met model: doses up to 300 mg/kg
Text: Convulsions were induced in mice

[14] = electrical kindling model, rats p.o.; format: in vivo; conditions: po; rat p.o.
Text: as §3

[15] = subcutaneous bicuculline model (s.c. Bic), mice; format: in vivo
Text: as §3

[16] = neurotoxicity in rats (positional sense test and gait and stance test); format: in vivo; conditions: rat p.o.
Procedure: (§4) Neurotoxicity of the claimed agents was also assessed in mice (i.p. adminstration) by the rotorod ataxia test and also in some cases in rats (p.o. administration) by the positional sense test and gait and stance test.

[17] = screen for protection against chemically and electrically induced convulsions (at least two models of epilepsy); format: in vivo; conditions: mice i.p. and/or rats p.o.; MES, s.c. Met, s.c. Bic, electrical kindling
Text: as §2, §3

[18] = cognitive impairment tests in rats (locomotor, passive and active response tests); format: in vivo, rat; conditions: at minimum dose giving full protection in MES test
Text: A major neurological side effect observed in patients on treatment with antiepileptic agents is cognitive impairment. […] Results from the models used are taken as indicators of major constituents of human cognition.
as §1

in vivo = conditions: mouse, ip
[19] = neurotoxicity in mice (rotorod ataxia test)
Procedure: as §4

[20] = literature values; cited from earlier work
[21] = rat, in vivo, po; cited from earlier work
[22] = rats, days 16-17, compound 1 200, carbamazepine 15, Na valproate 500 mg/kg
[23] = rats, days 22-23, compound 1 200, carbamazepine 15, Na valproate 500 mg/kg
[24] = rats, daily oral dosing, days 8-9, compound 1 200 mg/kg, Na Valproate 500 mg/kg, ± SEM

## NC(=O)N1c2ccccc2C=Cc2ccccc21 [Carbamizepine]
[1]; [22]
  Avoidance, Session I: 7 ± 4
  Crossings, Session I: 18 ± 10
  Latency, Session I: 27 ± 2 s
[1]; [23]
  Avoidance, Session II: 2 ± 2
  Crossings, Session II: 11 ± 8
  Latency, Session II: 29 ± 1 s
[2]
  ED50, MES model: 8.5 mg/kg
[3]
  ED50, s.c. MET model: N.E.
[4]
  ED50, s.c. MET model: N.E.
[5]
  ED50, electrical kindling model: 28.9 mg/kg

## CCCC(CCC)C(=O)O [Na Valproate]
[6]; rat, in vivo
  Big mov. (activity score), day activity 14.00-20.00 h: 2784 ± 352 number of crossings
  Big mov. (activity score), night activity 20.00-08.00 h: 5832 ± 854 number of crossings
  Total mov. (activity score), day activity 14.00-20.00 h: 8963 ± 1554 number of crossings
  Total mov. (activity score), night activity 20.00-08.00 h: 18876 ± 2039 number of crossings
[1]; rat, in vivo
  Avoidance, Session I: 2 ± 3
  Avoidance, Session II: 6 ± 5
  Crossings, Session I: 13 ± 2
  Crossings, Session II: 16 ± 9
  Latency, Session I: 28 ± 0.4
  Latency, Session II: 27 ± 2

## CCCC(CCC)C(=O)O [VPA, 2-propylpentanoic acid]
[7]; po
  ED100: 500 mg/kg
[8]; rat, in vivo
  passive avoidance performance (retention): performed much worse
[1]; rat, in vivo
  active avoidance performance compared with control group: worse performance
[2]
  ED50, MES model: 490 mg/kg
[9]
  ED50, MES model: 272 mg/kg
[3]
  ED50, s.c. MET model: 180 mg/kg
[4]
  ED50, s.c. MET model: 146 mg/kg
[4]; listed as Valproic acid
  ED50, s.c. MET model: 149 mg/kg
[5]
  ED50, electrical kindling model: 117 mg/kg
[10]
  adverse effects: considerable adverse effects including hepatotoxicity and teratogenicity
[11]
  LD50: 658 mg/kg

## CCCC(CCC)C(=O)NCC(N)=O [Compound 1, N-(2-n-Propylpentanoyl)glycinamide]
[7]; po
  ED100: 200 mg/kg
[7]; po, rat p.o., read-out: ED50, MES model
  ED50: 73 mg/kg
[7]; rat p.o.
  Pi (protective index, TD50/ED50), MES model: > 13.7
[7]; rat p.o., vs VPA
  ED50 in MES model, times lower (more efficacious) than VPA: seven
[7]; rat p.o., vs phenytoin
  ED50 in MES model relative to phenytoin: approximately twice
[12]
  PI (protective index, TD50/ED50), MES model: 2.4
[12]; Mus musculus, ip, read-out: ED50, MES model
  ED50: 152 mg/kg
[13]
  PI (protective index, TD50/ED50), s.c. MET model: 2.9
[13]; Mus musculus, ip, read-out: ED50, s.c. MET model
  ED50: 127 mg/kg
[14]
  ED50: 162 mg/kg
[15]
  protection from seizures, s.c. Bic model: full protection from seizures in mice, at a dose that was approximately that of literature values for the ED50 for VPA
[16]; in vivo, po, read-out: TD50 (median neurological toxic dose)
  TD50: > 1000 mg/kg
[16]
  TD50 (median neurological toxic dose): > 1000 mg/kg
[6]; [24]
  Big mov. (activity score), day activity 14.00-20.00 h: 2402 ± 307 number of crossings
  Big mov. (activity score), night activity 20.00-08.00 h: 7217 ± 765 number of crossings
  Total mov. (activity score), day activity 14.00-20.00 h: 7749 ± 1188 number of crossings
  Total mov. (activity score), night activity 20.00-08.00 h: 22568 ± 2209 number of crossings
[6]; rats, vs control
  motor activity in locomotor test: no significant difference in motor activity between the control and compound 1
[8]; rats, day 16, compound 1 200 mg/kg, VPA 500 mg/kg, daily oral
  passive avoidance performance (retention): retained their acquired knowledge to avoid the electric shock as well as the control group
[1]; rats, compared with VPA group, compound 1 200 mg/kg, VPA 500 mg/kg, daily oral
  active avoidance performance: significantly better performance than the VPA treated group
[1]; [22]
  Avoidance, Session I: 14 ± 7
  Crossings, Session I: 38 ± 13
  Latency, Session I: 21 ± 3 s
[1]; [23]
  Avoidance, Session II: 12 ± 7
  Crossings, Session II: 35 ± 9
  Latency, Session II: 22 ± 3 s
[17]
  anticonvulsant activity: showed anticonvulsant activity in rodents in all of the above mentioned tests
[18]
  cognitive impairment compared with VPA: less cognitive impairment than VPA
In vivo
  LD50: > 4000 mg/kg
[19]; mice i.p., vs VPA
  TD50 compared with VPA: significantly higher for compound 1 (less neurotoxic)
[19]; mouse, in vivo, ip
  TD50: 369 mg/kg

## CCCCCNCC(N)=O [milacemide]
[12]
  activity in MES model: neither valproylglycine nor milacemide was active
[13]
  activity in s.c. Met model: neither valproylglycine nor milacemide was active

## O=C1NC(=O)C(c2ccccc2)(c2ccccc2)N1 [Phenytoin]
[2]
  ED50, MES model: 29.8 mg/kg
[3]
  ED50, s.c. MET model: N.E.
[4]
  ED50, s.c. MET model: N.E.
[20]
  efficacy in s.c. Bic model: not effective
[21]
  TD50 (median neurological toxic dose): > 3000 mg/kg

## CCCC(CCC)C(=O)NCC(=O)O [valproylglycine]
[12]
  activity in MES model: neither valproylglycine nor milacemide was active
[13]
  activity in s.c. Met model: neither valproylglycine nor milacemide was active
